Experimental data reported in paper PMC9575645 (Signal Transduction and Targeted Therapy, 2022).

Assays:
[1] = system: SARS-CoV-2 S protein; format: cell-based
[2] = system: SARS-CoV-2 (KCDC03); test: In vitro antiviral activity against SARS-CoV-2 in Vero E6 cells (CCIF viral yield, RT-qPCR); format: cell-based; conditions: for SI (CC50/IC50) / IC50: SARS-CoV-2 (KCDC03); for IC50: Vero E6 cells; for virus replication (genome copy number, infectious progeny): SARS-CoV-2-infected Vero E6, 20 µM at 18 hpi
[3] = system: Bovine coronavirus (KWD20); test: In vitro antiviral activity against BCoV in HRT-18G cells (CCIF viral yield); format: cell-based; conditions: for IC50: HRT-18G cells
Method: Cells were grown in 6- or 12-well plates or 8-well chamber slides to the desired confluency and then washed twice with phosphate-buffered saline (PBS, pH 7.4). They were then mock-inoculated with medium only or virus-inoculated with various multiplicities of infection (MOI): MOI of 0.01 or 1 FFU/cell for IAV, and MOI of 0.01 or 0.1 FFU/cell for SARS-CoV-2, BCoV, PEDV, PRRSV, and PSaV. Thereafter, each inoculum was absorbed for 1 h, and the cells were washed twice with PBS (pH 7.4). As shown in Supplementary Table 4, further treatments and incubations varied dependent on the virus species used. Cells treated with PKA inhibitor H89 (5 μM or 50 μM concentration) or vehicle-treated immediately after absorption of IAV at an MOI of 1 FFU or SARS-CoV-2 at an MOI of 0.1 FFU were incubated for 24 and 36 h, respectively, and each cell lysate was used for the detection of HSL and pHSL by western blot analysis as described below. Cells treated with lipase inhibitors at the median incubation time of IAV or SARS-CoV-2 as described in the above condition were supplemented with LA, OA, or PA at 100 µM concentration and left incubation for further median incubation time. The cells were used to assess levels of intracellular TAGs, cholesterol, FFAs, glycerol, FAO, proinflammatory cytokines as well as viral genome copy numbers and virus titers as described below and in Supplementary Information.
To determine the antiviral effects of chemicals, serial 10-fold dilutions of each cell culture supernatant after three cycles of freezing and thawing cycles were prepared in appropriate medium supplemented with 100 U/mL penicillin and 100 μg/mL streptomycin as described above. To determine the viral infectivity titer in lung tissues from the hamsters challenged with or without SARS-CoV-2, or administered with or without inhibitors as described above, aseptically sampled lungs from five hamsters per group at day five post-virus infection were harvested. Cleared supernatants from lung tissue as produced from IAV-infected mice above were serially tenfold-diluted with virus growth medium. […] The cells were washed twice with PBS (pH 8.0), mounted with 60% glycerol, and observed byr inverted fluorescence microscopy. The number of cells showing a viral antigen-positive signal at the endpoint dilution were counted. IC50 was calculated using GraphPad Prism software version 8.4.2. […] CC50 data from the MTT assay and IC50 from the IF assay were both calculated using GraphPad Prism software version 8.4.2.

[4] = system: lipid droplets (LDs); test: BODIPY lipid droplet immunofluorescence in SARS-CoV-2-infected Vero E6 cells; format: cell-based, African green monkey; conditions: SARS-CoV-2-infected cells, MOI = 0.1 FFU; 20 µM
Method: (§1) To characterize the dynamics of LD formation, apoptotic and necroptotic cells, and virus infectivity, an IFA was performed with the […], MDCK, Caco-2, Vero E6, MA104, MARC-145, LLC-PK, and HRT-18G cells, infected with or without each virus, and treated with vehicles or chemicals at the different time points (Table S3), or transfected with siRNA or scrambled siRNA as described above.^ 16^,27^,28 Briefly, cells were prepared in 8-well chamber slides infected with IAV, SARS-CoV-2, BCoV, PEDV, RVA, PRRSV, or PSaV at an MOI of 1 (IAV), or MOI of 0.1 (SARS-CoV-2, BCoV, PEDV, RVA, PRRSV, or PSaV) and treated with or without chemicals. […] Subsequently, cells were washed thrice with PBS (pH 7.4) and mounted with SlowFade Gold antifade reagent containing 1 × DAPI solution (Molecular Probes) for nucleus staining, observed with a LSM 800 confocal microscope, and analysed using Zen Blue Software 2.6 (Carl Zeiss; Jena, Germany).
(§2) The number and size of intracellular LDs were measured as described previously.^28 Briefly, four images were taken of each sample and converted into a pixel unit, and the data were processed and quantified using Adobe Photoshop CS6. […] The results were expressed as relative values, where the average number and size of pixels of positive color in virus-infected groups were normalized to those of the mock-treated, mock-infected control.

[5] = In vivo toxicity in mice (body weight, gross and histopathological organ changes); conditions: for gross and histopathological changes in major organs (liver, lung, kidney, heart, spleen): 0.1, 1, or 10 mg kg^-1 d^-1 Bid for 4 consecutive days
[6] = system: lipid droplets (LDs); test: BODIPY lipid droplet immunofluorescence in IAV-infected A549 cells; format: cell-based, human; conditions: MOI = 1 FFU
Method: as §1, §2

[7] = system: A549; test: Cytotoxicity, MTT assay, A549; format: cell-based, human
Method: The cytotoxic effects of the chemicals and their solvents were tested by the MTT assay,[44] and its procedure is described in Supplementary Information.
The cytotoxic effects of the chemicals and their solvents used were tested by the MTT assay as described previously.^10 In brief, the chemicals were dissolved in DMSO to a stock concentration of 10 mM, and then freshly serially diluted in serum-free medium before being added to cell culture monolayers. The absorbance was measured using an enzyme-linked immunosorbent assay (ELISA) reader at an optical density (OD) of 570 nm. The percent cell viability was calculated using the following formula, [(ODsample˗ODblank)/(ODcontrol˗ODblank)] × 100%. According to the cell cytotoxicity data, dose-response curves were generated for the calculation of CC50 using GraphPad Prism software version 8.4.2.

[8] = system: Porcine sapovirus (Cowden); conditions: for IC50: Porcine sapovirus (Cowden), LLC-PK cells

SMILES	palmitoylation of the SARS-CoV-2 spike (S) protein [1]	SI (CC50/IC50) [2]	IC50 [2] [µM]	virus replication (genome copy number, infectious progeny) [2]	SI (CC50/IC50) [3]	IC50 [3] [µM]	intracellular LDs (BODIPY) [4]	gross and histopathological changes in major organs (liver, lung, kidney, heart, spleen) [5]	overt signs of toxicity, including loss of body weight ([5]; intraperitoneal 10 mg kg^-1 d^-1)	intracellular LDs (BODIPY) [6]	CC50 [7] [µM]	SI (CC50/IC50) [8]	IC50 [8] [µM]
CN(C)C(=O)Nc1cccc(-c2ccc(N(C)C)cc2)c1 [Atglistatin]	significantly inhibited	154	1.47 ± 0.12	inhibiting the replication	152	1.2 ± 0.04	Retention of LDs	no gross and histopathological changes	did not induce any overt signs of toxicity	Retention of LDs	206 ± 3	72	3.11 ± 0.39
COc1nn(-c2ccc(NC(=O)OCc3ccccc3)c(C)c2)c(=O)o1 [CAY10499]	significantly inhibited	62	1.54 ± 0.18	inhibiting the replication	14	7.3 ± 0.52	Retention of LDs	no gross and histopathological changes	–	Retention of LDs	106 ± 8.9	9	11.8 ± 2.6
